Experimental data taken from patent US20160009693A1, “HERBICIDAL COMPOUNDS” (SYNGENTA LIMITED, priority 2013, published 2016).

What was measured:
Format in all cases: in vivo
Conditions in all cases: applied at 1000 g/h, evaluated after 13 days
[1] = test system: Alopecurus myosuroides (ALOMY); assay: Herbicidal glasshouse test, pre-emergence, ALOMY
Setaria faberi (SETFA) [2] = assay: Herbicidal glasshouse test, pre-emergence, SETFA
[3] = test system: Echinochloa crus-galli (ECHCG); assay: Herbicidal glasshouse test, pre-emergence, ECHCG
In short: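 In this pre-emergence glasshouse test, ECHCG seeds sown in pots of standard soil were sprayed one day after sowing with the test material in acetone/water (50:50) containing 0.5% Tween 20. Plants were kept at 24/16° C., 14 hours light, 65% humidity, and watered twice daily. Percentage damage was rated after 13 days on a 1–5 scale.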

Solanum nigrum (SOLNI) [4] = assay: Herbicidal glasshouse test, pre-emergence, SOLNI
In short: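 This pre-emergence glasshouse herbicide test used Solanum nigrum sown in standard soil. One day after sowing, pots were sprayed with the compound in acetone/water (50:50) with 0.5% Tween 20. They were then grown at 24/16° C., with 14 hours light and 65% humidity, and watered twice daily. Percentage damage was scored after 13 days on a five point scale, where 5=80-100% and 1=0-19%.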

[5] = test system: Amaranthus retoflexus (AMARE); assay: Herbicidal glasshouse test, pre-emergence, AMARE
In short: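 This pre-emergence glasshouse herbicide test used Amaranthus retoflexus sown in standard soil. After one day of cultivation, an aqueous spray made from the technical ingredient in 50:50 acetone/water with 0.5% Tween 20 was applied. Pots stayed at 24/16° C., 14 hours light, 65% humidity, with twice-daily watering. Damage was rated on a five point scale (1=0-19% up to 5=80-100%).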

[6] = test system: Ipomoea hederacea (IPOHE); assay: Herbicidal glasshouse test, pre-emergence, IPOHE
[7] = test system: Alopecurus myosuroides (ALOMY); assay: Herbicidal glasshouse test, post-emergence, ALOMY
Setaria faberi (SETFA) [8] = assay: Herbicidal glasshouse test, post-emergence, SETFA
In short: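 This post-emergence glasshouse herbicide test used potted Setaria faberi. Plants were cultivated for 8 days under controlled conditions (24/16° C. day/night, 14 hours light, 65% humidity) and then treated with an aqueous spray made from an acetone/water (50:50) solution containing 0.5% Tween 20. After 13 days of further growth with twice-daily watering, damage was rated on a five point scale (5=80-100%; 1=0-19%).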

[9] = test system: Echinochloa crus-galli (ECHCG); assay: Herbicidal glasshouse test, post-emergence, ECHCG
In short: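 In this post-emergence glasshouse test, barnyard grass (ECHCG) was cultivated for 8 days under controlled conditions (24/16° C. day/night, 14 hours light, 65% humidity). It was then sprayed with an aqueous solution of the technical compound in acetone / water (50:50) with 0.5% Tween 20. Plants were kept under the same conditions and watered twice daily. After 13 days, percentage damage was rated on a five point scale (5=80-100%; 1=0-19%).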

Solanum nigrum (SOLNI) [10] = assay: Herbicidal glasshouse test, post-emergence, SOLNI
[11] = test system: Amaranthus retoflexus (AMARE); assay: Herbicidal glasshouse test, post-emergence, AMARE
In short: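 This post-emergence glasshouse test used AMARE plants raised in standard soil for 8 days under controlled conditions (24/16° C. day/night, 14 hours light, 65% humidity). Foliage was sprayed with formulated compound in acetone/water (50:50) containing 0.5% Tween 20. Plants were then watered twice daily, and after 13 days percentage damage was rated on a five point scale.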

[12] = test system: Ipomoea hederacea (IPOHE); assay: Herbicidal glasshouse test, post-emergence, IPOHE

| SMILES | PRE Application ALOMY, percentage damage (five point scale) [1] | PRE Application SETFA, percentage damage (five point scale) (Setaria faberi (SETFA) [2]) | PRE Application ECHCG, percentage damage (five point scale) [3] | PRE Application SOLNI, percentage damage (five point scale) (Solanum nigrum (SOLNI) [4]) | PRE Application AMARE, percentage damage (five point scale) [5] | PRE Application IPOHE, percentage damage (five point scale) [6] | POST Application ALOMY, percentage damage (five point scale) [7] | POST Application SETFA, percentage damage (five point scale) (Setaria faberi (SETFA) [8]) | POST Application ECHCG, percentage damage (five point scale) [9] | POST Application SOLNI, percentage damage (five point scale) (Solanum nigrum (SOLNI) [10]) | POST Application AMARE, percentage damage (five point scale) [11] | POST Application IPOHE, percentage damage (five point scale) [12] |
| --- | --- | --- | --- | --- | --- | --- | --- | --- | --- | --- | --- | --- |
| Cc1cccc(-n2c(=O)c(C(=O)Nc3nnnn3C)nn(C)c2=O)c1 [Compound 1.053] | 5 (5=80-100%) | 3 (3=40-59%) | 5 (5=80-100%) | 5 (5=80-100%) | 5 (5=80-100%) | 5 (5=80-100%) | 5 (5=80-100%) | 3 (3=40-59%) | 4 (4=60-79%) | 5 (5=80-100%) | 5 (5=80-100%) | 5 (5=80-100%) |
| Cn1nnnc1NC(=O)c1nn(C)c(=O)n(Cc2cccc(C#N)c2)c1=O [Compound 1.054] | 5 (5=80-100%) | 4 (4=60-79%) | 5 (5=80-100%) | 5 (5=80-100%) | 5 (5=80-100%) | 5 (5=80-100%) | 5 (5=80-100%) | 4 (4=60-79%) | 5 (5=80-100%) | 5 (5=80-100%) | 5 (5=80-100%) | 5 (5=80-100%) |
| Cn1nnnc1NC(=O)c1nn(C)c(=O)n(Cc2ccc(F)cc2F)c1=O [Compound 1.055] | 5 (5=80-100%) | 1 (1=0-19%) | 5 (5=80-100%) | 5 (5=80-100%) | 5 (5=80-100%) | 5 (5=80-100%) | 5 (5=80-100%) | 1 (1=0-19%) | 4 (4=60-79%) | 5 (5=80-100%) | 5 (5=80-100%) | 5 (5=80-100%) |
| Cn1nnnc1NC(=O)c1nn(C)c(=O)n(Cc2c(F)cc(F)cc2F)c1=O [Compound 1.056] | 5 (5=80-100%) | 1 (1=0-19%) | 5 (5=80-100%) | 5 (5=80-100%) | 5 (5=80-100%) | 5 (5=80-100%) | 5 (5=80-100%) | 4 (4=60-79%) | 4 (4=60-79%) | 5 (5=80-100%) | 5 (5=80-100%) | 5 (5=80-100%) |
| Cn1nnnc1NC(=O)c1nn(C)c(=O)n(Cc2ccc(C(F)(F)F)cc2)c1=O [Compound 1.057] | 5 (5=80-100%) | 1 (1=0-19%) | 5 (5=80-100%) | 3 (3=40-59%) | 5 (5=80-100%) | 4 (4=60-79%) | 5 (5=80-100%) | 1 (1=0-19%) | 4 (4=60-79%) | 5 (5=80-100%) | 5 (5=80-100%) | 5 (5=80-100%) |
| Cn1nnnc1NC(=O)c1nn(C)c(=O)n(Cc2ccccc2F)c1=O [Compound 1.058] | 5 (5=80-100%) | 5 (5=80-100%) | 5 (5=80-100%) | 5 (5=80-100%) | 5 (5=80-100%) | 5 (5=80-100%) | 5 (5=80-100%) | 5 (5=80-100%) | 5 (5=80-100%) | 5 (5=80-100%) | 5 (5=80-100%) | 5 (5=80-100%) |
| Cn1nnnc1NC(=O)c1nn(C)c(=O)n(Cc2ccccc2Cl)c1=O [Compound 1.059] | 5 (5=80-100%) | 2 (2=20-39%) | 5 (5=80-100%) | 5 (5=80-100%) | 5 (5=80-100%) | 5 (5=80-100%) | 5 (5=80-100%) | 4 (4=60-79%) | 4 (4=60-79%) | 5 (5=80-100%) | 5 (5=80-100%) | 5 (5=80-100%) |
| Cn1nnnc1NC(=O)c1nn(C)c(=O)n(Cc2ccccc2[N+](=O)[O-])c1=O [Compound 1.060] | 5 (5=80-100%) | 5 (5=80-100%) | 5 (5=80-100%) | 5 (5=80-100%) | 5 (5=80-100%) | 5 (5=80-100%) | 5 (5=80-100%) | 5 (5=80-100%) | 5 (5=80-100%) | 5 (5=80-100%) | 5 (5=80-100%) | 5 (5=80-100%) |
| Cn1nnnc1NC(=O)c1nn(C)c(=O)n(Cc2cc(F)ccc2F)c1=O [Compound 1.061] | 5 (5=80-100%) | 5 (5=80-100%) | 5 (5=80-100%) | 5 (5=80-100%) | 5 (5=80-100%) | 5 (5=80-100%) | 5 (5=80-100%) | 5 (5=80-100%) | 5 (5=80-100%) | 5 (5=80-100%) | 5 (5=80-100%) | 5 (5=80-100%) |
| Cn1nnnc1NC(=O)c1nn(C)c(=O)n(Cc2ccccc2C(F)(F)F)c1=O [Compound 1.062] | 5 (5=80-100%) | 5 (5=80-100%) | 5 (5=80-100%) | 5 (5=80-100%) | 5 (5=80-100%) | 5 (5=80-100%) | 5 (5=80-100%) | 5 (5=80-100%) | 5 (5=80-100%) | 5 (5=80-100%) | 5 (5=80-100%) | 5 (5=80-100%) |
